Structures can show the parent of a compound that is named as a salt.
What was measured:
[1] = SAXD nanostructure of lipid compositions hydrated with PBS; assay type: physicochemical; details: for API concentration at which the cubic Fd3m structure is not significantly altered / API concentration at which the cubic structure is completely lost / API concentration at which transformation into L2 solution begins: SPC/GDO 35/65, lipid/EtOH/PG 85/10/5, PBS
Experimental: Aqueous phase behavior was studied by hydrating non-aqueous lipid formulations with phosphate buffered saline (0.01 M phosphate buffer with 0.137 M NaCl and 0.002 M KCl, pH 7.4) at various weight ratios: 2:1, 1:1, 1:2 and 1:9. After brief vortexing, samples were left to equilibrate at room temperature for 1 week before X-ray diffraction measurements.
The nanostructure of hydrated lipid samples was studied using synchrotron small angle X-ray diffraction (SAXD). Measurements were performed at the 1911 beam-line at MAX-lab (Lund University, Sweden), using a Pilatus 1M 165 mm CCD detector with a resolution of 981×1043 pixels at a pixel size of 0.172 mm. The lipid samples were mounted between kapton windows in a steel sample holder at a sample-to-detector distance of 1312 mm. Diffractograms were recorded at the X-ray wavelength of 0.91 Å and a beam size of 0.25×0.25 mm (full width at the half maximum) at the sample. Temperature control within 0.1° C. was achieved using computer controlled Julabo heating circulator F12-MC (Julabo Labortechnik GMBH, Seelbach, Germany). When temperature effects were studied, the experiments were performed successively at 25° C., 37° C. and 42° C. with a 3-min exposure time at each temperature and a wait of 10 minutes between temperature steps. The resulting CCD images were integrated and analysed using the Fit2D software provided by Dr. A. Hammersley (http://www.esrf.fr/computing/scientific/FIT2D). Silver behanate calibrated sample-to-detector distance and detector positions were used.

[2] = Depot injected into rat periodontal pocket; assay type: in vivo; details: PC/GDO/EtOH/Gardol (34/51/10/5) injected into rat periodontal pocket
Experimental: In order to treat periodontitis or perimplantitis an antibacterial formulation is injected in the periodontal pocket, and a prolonged effect of the formulation is normally desired. […] The injected composition is observed to transform from the low viscous formulation, and which initially spreads out to fill voids, to form a solid mass by uptake of gingival fluids. An antibacterial depot system is thus provided.
This formulation is injected into the rat periodontal pocket.
Gardol is observed to remain at clinically effective levels in the GCF of the periodontal pockets for a prolonged period (several days).

[3] = Surface gel formation of chlorhexidine depots in situ; assay type: physicochemical; details: applied as a liquid, bioadhesive gel in situ
Source text: For topical bioadhesive, controlled release products for intraoral (including buccal & periodontal) administration; • i. benzydamine (local analgesic, anti inflammatory) or other local analgesic, analgesic, anti inflammatory, anti bacterial, anti fungal or combination thereof. Composition provides sustained effect at intraoral mucosa, in particular damaged, sensitised, infected mucosa e.g. in patients suffering from oral mucositis (induced by e.g. chemo- and radiotherapy). In particular for treatment of oral mucositis. • ii. tramadol (analgesic). […] Particularly for long acting effect in periodontal pocket.

[4] = stated as clinically effective level; cited from earlier work

In the case of `CN(C)CCCOc1nn(Cc2ccccc2)c2ccccc12` [BZD, benzydamine], the “phase formed at lipid formulation to PBS weight ratio of 1:1” value ([1]; 3 wt % BZD, SPC/GDO 35/65) is reported as “cubic Fd3m LC phase is formed”, the “effect on Fd3m LC phase at SPC/GDO weight ratio of 30/70” value ([1]; 3 wt % of BZD, 25° C.) is reported as “transforms into L2 solution” and the “API concentration at which the cubic Fd3m structure is not significantly altered” value [1] is reported as “up to 3.5 wt %”.

For `CN1C2CCCC1CC(NC(=O)c1nn(C)c3ccccc13)C2` (stereo not shown) [GRN, Granisetron hydrochloride], the “API concentration at which the cubic structure is completely lost” value [1] was “about 1.5 wt %” and the “API concentration at which transformation into L2 solution begins” value [1] was 0.8 wt %.

In the case of `CCCCCCCCCCCC(=O)N(C)CC(=O)[O-].[Na+]` [Gardol, Glycine, N-methyl-N-(1-oxododecyl)-, sodium salt], the “time Gardol remains at clinically effective levels in the GCF of the periodontal pockets” value [2] is reported as “several days”.

In the case of `CCN(CC)CC(=O)Nc1c(C)cccc1C` [LID, Lidocaine], the “API concentration at which the cubic Fd3m structure is not significantly altered” value [1] is reported as ≤ 1.7 wt %, the “API concentration at which the cubic structure is completely lost” value [1] is reported as “lower than 3 wt %” and the “API concentration at which transformation into L2 solution begins” value [1] is reported as 2 wt %.

With `CC1(C)O[C@@H]2C[C@H]3[C@@H]4CCC5=CC(=O)C=C[C@]5(C)[C@@]4(F)[C@@H](O)C[C@]3(C)[C@]2(C(=O)CO)O1` [TCA, triamcinolone acetonide] the “effect on formation and lattice dimensions of the cubic structure” value ([1]; SPC/GDO 35/65, lipid/EtOH/PG 85/10/5) was “very little effect” and the “API concentration at which the cubic Fd3m structure is not significantly altered” value [1] was ≥ 5 wt %.

For `N=C(NCCCCCCNC(=N)NC(=N)Nc1ccc(Cl)cc1)NC(=N)Nc1ccc(Cl)cc1.O=C(O)[C@H](O)[C@@H](O)[C@H](O)[C@H](O)CO.O=C(O)[C@H](O)[C@@H](O)[C@H](O)[C@H](O)CO` [chlorhexidine gluconate], the “Surface gel formation time” value [3] was “between 1 second and 5 min”.

In the case of chlorhexidine, the MIC [4] is given as 125 µg/mL.

From patent publication US9649382B2, “Topical bioadhesive formulations” (CAMURUS AB, priority 2005, dated 2017)
